Each structure is given as a SMILES string. Values joined by “and” are separate entries in the source; they are usually repeats but may differ in a detail not shown here. Equal entries are not always repeated.

In data set [1] the target is T1, human mGlu5 receptor (Homo sapiens, UniProt P41594).
T1 construct: expressed in transfected cells
In words: Ki/IC50 determination (binding assay), radioligand displacement. How it is done:
In vitro, the affinity for the mGlu5 receptor is determined using a radioligand displacement technique as described by Gasparini et al, Biorg. Med. Chem. Lett. 2002, 12, 407-409.
For orientation: Loss of bound radioactivity is the signal in a displacement assay; it reports binding, not function.

Data set [2] has as its target T2, mGlu5 receptors (Rattus norvegicus, UniProt P31424).
T2 construct: from tissue; host or cells: rat brain regions and organs (in vivo tracer distribution)
In words: Organ and brain structure distribution (biodistribution) with and without blockade. The format is in vivo, Sprague-Dawley rats. Conditions: 30 min post-injection, individual values. On the procedure:
Two groups of male adult Sprague-Dawley rats weighing 250-300 g are used for the biodistribution studies. The first group (n=3) serves as the control group and the second group (n=3) serves as the blockade group. Each animal received 250-300 pmol (0.6-40 MBq) of 3-(6-methyl-pyridin-2-ylethynyl)-cyclohex-2-enone O-[^11C-methyl]oxime via a lateral tail vein. The blockade group is co-injected with 2-methyl-6-((3-methoxyphenyl)ethynyl)-pyridine (1 mg/kg) whereas the control group (n=3) receives a corresponding volume of 0.9% NaCl. The animals are sacrificed 30 min post-injection. Organ or brain regions such as hippocampus, striatum, cortex and cerebellum are removed and measured in a gamma-counter. The tissue distribution is expressed as percentage of injected dose per gram wet tissue (% ID/g organ).
K1, K2, K3 are individual values for control animals. B1, B2, B3 are individual values for animals co-injected with 2-methyl-6-((3-methoxyphenyl)ethynyl)-pyridine.

The mark [3] stands for this setting: blockade animals B1-B3 co-injected with 2-methyl-6-((3-methoxyphenyl)ethynyl)-pyridine 1 mg/kg.
Where [4] appears, read: control animals K1-K3 (0.9% NaCl), i.v. tail vein.

T1 sequence (P41594 21-1180 isoform P41594-2 limits assumed): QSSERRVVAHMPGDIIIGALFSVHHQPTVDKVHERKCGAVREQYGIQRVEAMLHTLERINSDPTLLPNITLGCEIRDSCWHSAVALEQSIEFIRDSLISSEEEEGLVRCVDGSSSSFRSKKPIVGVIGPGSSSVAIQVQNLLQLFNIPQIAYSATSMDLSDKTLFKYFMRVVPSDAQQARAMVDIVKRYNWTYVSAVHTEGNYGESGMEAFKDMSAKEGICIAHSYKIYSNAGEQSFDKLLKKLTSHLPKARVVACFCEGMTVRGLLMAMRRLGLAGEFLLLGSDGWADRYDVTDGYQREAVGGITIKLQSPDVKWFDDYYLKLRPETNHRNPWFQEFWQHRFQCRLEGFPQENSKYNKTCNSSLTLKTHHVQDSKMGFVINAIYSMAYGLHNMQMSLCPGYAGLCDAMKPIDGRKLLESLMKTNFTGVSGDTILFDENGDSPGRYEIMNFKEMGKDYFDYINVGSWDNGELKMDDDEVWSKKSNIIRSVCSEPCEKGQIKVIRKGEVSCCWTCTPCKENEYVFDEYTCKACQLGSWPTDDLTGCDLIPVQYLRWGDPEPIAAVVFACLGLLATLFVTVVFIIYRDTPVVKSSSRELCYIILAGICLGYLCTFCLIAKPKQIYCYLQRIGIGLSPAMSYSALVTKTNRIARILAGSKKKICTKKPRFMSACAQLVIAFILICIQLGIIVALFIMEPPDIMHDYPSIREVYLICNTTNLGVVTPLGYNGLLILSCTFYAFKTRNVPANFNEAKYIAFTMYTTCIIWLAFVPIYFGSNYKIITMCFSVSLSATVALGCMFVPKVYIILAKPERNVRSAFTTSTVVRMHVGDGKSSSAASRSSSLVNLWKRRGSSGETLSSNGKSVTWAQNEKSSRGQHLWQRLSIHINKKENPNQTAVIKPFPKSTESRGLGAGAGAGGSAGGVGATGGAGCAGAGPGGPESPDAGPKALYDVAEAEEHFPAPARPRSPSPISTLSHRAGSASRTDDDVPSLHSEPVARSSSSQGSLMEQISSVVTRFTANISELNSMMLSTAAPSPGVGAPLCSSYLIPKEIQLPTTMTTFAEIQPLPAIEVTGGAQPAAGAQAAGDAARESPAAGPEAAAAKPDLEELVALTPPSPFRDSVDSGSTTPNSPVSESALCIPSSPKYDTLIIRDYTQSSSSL
T2 sequence (P31424 21-1203): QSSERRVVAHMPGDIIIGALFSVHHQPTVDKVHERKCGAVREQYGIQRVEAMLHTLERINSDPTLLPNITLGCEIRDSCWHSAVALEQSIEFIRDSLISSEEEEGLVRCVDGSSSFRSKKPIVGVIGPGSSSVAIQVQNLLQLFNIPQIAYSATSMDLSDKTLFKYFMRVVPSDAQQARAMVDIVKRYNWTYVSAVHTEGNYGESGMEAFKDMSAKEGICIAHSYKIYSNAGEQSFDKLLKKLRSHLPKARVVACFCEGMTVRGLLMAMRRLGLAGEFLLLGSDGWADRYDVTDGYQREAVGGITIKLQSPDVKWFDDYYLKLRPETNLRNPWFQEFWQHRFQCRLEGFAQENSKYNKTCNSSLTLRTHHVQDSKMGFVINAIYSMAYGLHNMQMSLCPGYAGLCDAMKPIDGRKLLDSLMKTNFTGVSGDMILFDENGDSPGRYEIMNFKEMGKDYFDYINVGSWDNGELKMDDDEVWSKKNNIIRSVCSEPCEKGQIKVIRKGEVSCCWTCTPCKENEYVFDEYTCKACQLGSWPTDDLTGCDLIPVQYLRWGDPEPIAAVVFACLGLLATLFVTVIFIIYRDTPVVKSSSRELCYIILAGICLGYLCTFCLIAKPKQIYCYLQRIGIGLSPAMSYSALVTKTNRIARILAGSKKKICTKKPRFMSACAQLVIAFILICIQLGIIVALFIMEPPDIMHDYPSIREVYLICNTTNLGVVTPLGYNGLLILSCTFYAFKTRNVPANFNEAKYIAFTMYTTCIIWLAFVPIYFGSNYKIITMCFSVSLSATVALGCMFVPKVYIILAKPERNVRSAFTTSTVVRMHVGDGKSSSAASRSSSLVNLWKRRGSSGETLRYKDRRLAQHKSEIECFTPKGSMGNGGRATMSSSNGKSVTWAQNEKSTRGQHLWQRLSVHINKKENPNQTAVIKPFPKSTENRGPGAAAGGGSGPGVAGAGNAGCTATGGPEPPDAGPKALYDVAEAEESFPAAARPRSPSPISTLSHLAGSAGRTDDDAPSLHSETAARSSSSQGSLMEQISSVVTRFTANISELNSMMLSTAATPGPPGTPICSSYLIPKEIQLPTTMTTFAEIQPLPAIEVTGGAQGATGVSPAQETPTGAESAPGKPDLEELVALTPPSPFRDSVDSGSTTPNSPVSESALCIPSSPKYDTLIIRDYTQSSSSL

What is called Ki is the equilibrium dissociation constant of an inhibitor or competing ligand from its target. For orientation: Hill coefficient means a measure of the steepness of the concentration-response curve. By IC50 is commonly meant the concentration that inhibits the measured activity by half. As for `CON=C1C=C(C#Cc2cccc(C)n2)CCC1` [3-(6-methyl-pyridin-2-ylethynyl)-cyclohex-2-enone O-methyl-oxime], in data set [1] (calculated using the Cheng-Prusoff equation, radioligand concentration 2 nM), the Ki is 4 nM. In addition, the Hill coefficient in data set [1] (displacement of [3H]-2-methyl-6-((3-methoxyphenyl)ethynyl)-pyridine, L-tk cell membranes, human mGlu5) came to 1.08. The IC50 in data set [1] (membrane of L-tk cells stably expressing the human mGlu5 receptor, 95% confidence intervals: 6.0-10.0 nM, read-out: IC50 for the displacement of [3H]-2-methyl-6-((3-methoxyphenyl)ethynyl)-pyridine) came out at 8 nM.
Take `Cc1cccc(C#CC2=CC(=NO[11CH3])CCC2)n1` [Example 1, 3-(6-Methyl-pyridin-2-ylethynyl)-cyclohex-2-enone O-[^11C-methyl]-oxime]: in data set [2] (setting [3]), the “percentage of injected dose per gram wet tissue, Cerebellum” value is 0.04052 % ID/g organ and 0.03608 % ID/g organ and 0.03421 % ID/g organ; the “percentage of injected dose per gram wet tissue, Cortex” value is 0.04964 % ID/g organ and 0.05582 % ID/g organ and 0.05431 % ID/g organ; the “percentage of injected dose per gram wet tissue, Hippocampus” value is 0.05184 % ID/g organ and 0.06195 % ID/g organ and 0.05972 % ID/g organ; the “percentage of injected dose per gram wet tissue, Midbrain” value is 0.03876 % ID/g organ and 0.047 % ID/g organ and 0.04422 % ID/g organ. Moreover, in data set [2] (setting [3]), the “percentage of injected dose per gram wet tissue, Restbrain” value is 0.03832 % ID/g organ and 0.04762 % ID/g organ and 0.04383 % ID/g organ; the “percentage of injected dose per gram wet tissue, Striatum” value is 0.06495 % ID/g organ and 0.07158 % ID/g organ and 0.06487 % ID/g organ; the “percentage of injected dose per gram wet tissue, Whole brain” value was 0.0458 % ID/g organ and 0.05118 % ID/g organ and 0.04951 % ID/g organ. Further, in data set [2] (setting [4]), the “percentage of injected dose per gram wet tissue, Cerebellum” value is 0.03322 % ID/g organ and 0.03925 % ID/g organ and 0.03699 % ID/g organ; the “percentage of injected dose per gram wet tissue, Cortex” value is 0.1485 % ID/g organ and 0.1832 % ID/g organ and 0.1691 % ID/g organ; the “percentage of injected dose per gram wet tissue, Hippocampus” value was 0.1615 % ID/g organ and 0.2544 % ID/g organ and 0.2126 % ID/g organ; the “percentage of injected dose per gram wet tissue, Midbrain” value is 0.07703 % ID/g organ and 0.1056 % ID/g organ and 0.09091 % ID/g organ. Also, in data set [2] (setting [4]), the “percentage of injected dose per gram wet tissue, Restbrain” value was 0.05519 % ID/g organ and 0.0652 % ID/g organ and 0.0607 % ID/g organ; the “percentage of injected dose per gram wet tissue, Striatum” value was 0.2256 % ID/g organ and 0.3069 % ID/g organ and 0.2816 % ID/g organ; the “percentage of injected dose per gram wet tissue, Whole brain” value is 0.1112 % ID/g organ and 0.1366 % ID/g organ and 0.13 % ID/g organ.

The record behind these values is patent US8674110B2, “Pyridylacetylenes for use as radiotracers and imaging agents” (Novartis AG, priority 2003, dated 2014).
